Entries after “also recorded” stand apart in the source; their conditions may differ. Like-named read-outs stand apart in the source and are kept apart here.

One series relates to healthy subjects. The experiment in a line: Phase 1 study, MAD cohorts: serum lipid parameters by NMR LipoProfile. The series is classed as in vivo, human. Conditions: Day 1 to Day 14. Here is the method: (§1) Lipid parameters, including apolipoprotein B (apoB), were evaluated by NMR LipoProfile® (Labcorp, Burlington, NC. Plasma ApoC3 and ANGPTL3 were evaluated by ELISA (360biolabs, Melbourne, Australia). Peripheral RCT (reverse cholesterol transport) were evaluated by assessing changes in expression of ABCA1/ABCG1 in PBMCs, predose and 4 hours postdose on Days 1 and 14 (Gnomix, Bedford Park, Australia).
Methods. In a randomized, double-blind, placebo (PBO)-controlled Phase 1 study, healthy subjects (n=8/2 Compound 21/3 vs PBO/cohort) received single ascending doses (SAD) of Compound 21/3 (0.5, 2, 6, 12, or 20 mg) or multiple ascending doses (MAD) QD for 14 days (0.5, 2, 6, or 12 mg) while fed or 6 mg fasted. Safety, PK, serum lipid parameters by NMR LipoProfile®, and gene expression in PBMCs were evaluated.
Results. The proportion of subjects with adverse events (AEs) was 60% with PBO and 13-50% with Compound 21/3 in the SAD cohorts (n=50), and 40% and 13-88%, respectively, in the MAD cohorts (n=50). All AEs were mild except an unrelated, Grade 2 thrombophlebitis in a subject on Compound 21/3 2 mg. […] With fasted dosing, exposures were similar on Days 1 and 14 and ˜3-fold higher than with fed dosing. […] In FIG. 13A-13H, figures on graphs indicate median relative (%) change in predose NMR Lipoprofile® parameter from Day 1 to Day 14. […]

A short description of series [1]: Phase 1 study, SAD cohorts: plasma pharmacokinetics. It counts as in vivo, human. Conditions: for AUC(0-inf) / Cmax / Tmax / half-life: both sexes, human, oral, plasma. Here is the method:
A double-blind, placebo-controlled, single- and multiple-ascending dose FIH Phase 1 study to evaluate the safety, tolerability, PK, and PD of Compound 21/3 in healthy adult subjects was performed. A total of up to 150 subjects were enrolled, including 100 subjects in Parts A and B, and up to 50 subjects in adaptive cohorts in Part C. Within each cohort, 10 subjects were randomized, including 8 subjects randomized to Compound 21/3 and 2 subjects to PTM (placebo-to-match). In single-dose cohorts in Parts A and in any Part C cohort evaluating a higher total daily dose than previously evaluated, safety and tolerability data collected through Day 2 from two sentinel subjects, one randomized to Compound 21/3 and one to PTM, were evaluated prior to dosing of the remaining subjects in each cohort.
Intensive PK sampling over 72 h postdose on Day 1 (SAD and MAD) and Day 14 (MAD) was performed. Compound 21/3 plasma concentrations were determined using validated liquid chromatography-tandem mass spectrometry assay. PK parameters were estimated via noncompartmental methods using Pheonix® WinNonlin® 6.2.1 and 8.3.4 (Certara, LP, Princeton, NJ).
Part A evaluated the safety, tolerability, PK, and PD of single-ascending doses of oral Compound 21/3 or placebo under fed conditions. Part A proceeded in up to 5 dose-escalation cohorts and governed by a review of safety, tolerability, and any available and relevant PK and/or PD data, and study-specific stopping criteria.

In the next series the test system is ABCA1/ABCG1 in PBMCs. The series is described as follows: Phase 1 study, MAD cohorts: expression of ABCA1/ABCG1 in PBMCs (peripheral RCT). The series is classed as in vivo, human. As to conditions: healthy subjects, predose and 4 h postdose on Day 14. How it is done:
as §1
In FIG. 14A to 14C, ApoC3 and ANGPTL3 measured 12 h postdose. RCT assessed predose and 4 h postdose on Day 14.

Series [2] has as its system human primary Upcyte hepatocytes. The experiment in a line: Lipid accumulation in human primary Upcyte hepatocytes (Bodipy staining). The series is classed as cell-based. As to conditions: Hepatocyte, 120 h, glucose 25 mM and palmitate, 5 days. Here is the method: Inhibition of LXR activity in hepatocytes is hypothesized to reduce intracellular TG accumulation via inhibition of DNL. The effects of Compound 21/3 on lipid accumulation in human primary Upcyte® hepatocytes were evaluated. Briefly, human primary Upcyte hepatocytes were cultivated in media containing high concentrations of glucose (25 mM) and palmitate ([…]) for 5 days in the presence or absence of Compound 21/3, and intracellular lipids were measured by Bodipy™ staining. […] Data are shown as mean±SD. n=2 wells per treatment; N=8 experiments.

The subject of series [3] is CDHFD/sodium nitrate-treated Wistar Han rats. The series is described as follows: CDHFD/sodium nitrate rat model of NASH with advanced fibrosis. It counts as in vivo. Conditions: 5 mg/kg once daily oral. From the text: Data are shown as mean±SD. N=7-8 animals per group. *p≤0.05, **p≤0.01, ***p≤0.001, ****p≤0.0001 Mann-Whitney test.
The CDHFD model of NASH is characterized by reduced phosphatidylcholine synthesis in the liver and impaired TG secretion in VLDL particles, which results in hepatic lipid accumulation, inflammation, oxidative stress, and severe fibrosis. Liver injury in CDHFD-fed rats can be exacerbated by further inducing hypoxia using sodium nitrate (Takayama, Egashira et al. 2009). Wistar Han rats were treated with CDHFD/sodium nitrate for a total of 12 weeks and dosed with Compound pre-6/3 (5 mg/kg once daily by oral gavage) from Weeks 6 to 12. […] Moreover, compared with vehicle treatment, Compound pre-6/3 decreased hepatic hydroxyproline and collagen content by 64% (p≤0.001) and 50% (p≤0.001), respectively (FIG. 8B-C).

The AUC(0-inf) is the area under the concentration-time curve extrapolated to infinity. Read a low AUC(0-inf) as less exposure. As usually defined, the Tmax is the time at which the peak concentration occurs. The half-life is how long it takes for the measured level to halve. Broadly, the EC50 is the midpoint of the concentration-response curve. In the case of `N#Cc1cccc(C#N)c1-c1c(-c2cccc(-c3ccc(C(=O)NCC(=O)O)cc3Cl)c2)n(S(=O)(=O)c2ccc(C(F)F)cc2)c2ccc(F)cc12` [Compound 21/3], the HDL-C entry with healthy subjects is “not HDL-C”. For the same molecule, in the series with healthy subjects, the “serum triglycerides, total and LDL-C, total and small LDL particles, TG/HDL-C ratio” value is given as “Significant, dose-dependent reductions; also recorded: significant, dose-dependent improvements”. Moreover, the total exposure AUC(0-inf) in series [1] (Day 1, 0.5 mg, mean) came to 1.2 ng·h/mL; in series [1] (Day 1, 2 mg, mean) it was 8.5 ng·h/mL; in series [1] (Day 1, 6 mg, mean), 10 ng·h/mL; in series [1] (Day 1, 12 mg, mean), 17.1 ng·h/mL; in series [1] (Day 1, 20 mg, mean), 20.6 ng·h/mL. In addition, the Cmax was 0.37 ng/mL in series [1] (Day 1, 0.5 mg, mean, read-out: Cmax); 0.54 ng/mL in series [1] (Day 1, 2 mg, mean, read-out: Cmax); 3.33 ng/mL in series [1] (Day 1, 6 mg, mean, read-out: Cmax); 4.69 ng/mL in series [1] (Day 1, 12 mg, mean, read-out: Cmax); 6.79 ng/mL in series [1] (Day 1, 20 mg, mean, read-out: Cmax); less than 7 ng/mL in series [1] (healthy subjects, read-out: maximal plasma concentrations (Cmax)). The Tmax in series [1] (Day 1, 0.5 mg, median) is 3.5 h; in series [1] (Day 1, 2 mg, median) it was 3.75 h; in series [1] (Day 1, 6 mg, median), 4 h; in series [1] (Day 1, 12 mg, median), 3 h; in series [1] (Day 1, 20 mg, median), 2.5 h; in series [1] (healthy subjects, postdose), 3 to 4 h. For the same molecule, the half-life is 2.1 h in series [1] (Day 1, 0.5 mg, median); 4.96 h in series [1] (Day 1, 2 mg, median); 1.37 h in series [1] (Day 1, 6 mg, median); 2.02 h in series [1] (Day 1, 12 mg, median); 2.36 h in series [1] (Day 1, 20 mg, median); 2 to 3 h in series [1] (healthy subjects). Also, the “dose proportionality of plasma exposure” value in series [1] (healthy subjects) was “less than dose-proportional increases”. In addition, the “peripheral RCT: expression of LXR target genes in PBMCs incl. ABCA1/ABCG1” value in the series on ABCA1/ABCG1 in PBMCs is reported as “does not impact; also recorded: did not impact”. In addition, it took 289 ± 34 nM to reach a half-maximal effect in series [2] (EC50).

Consider `N#Cc1cccc(C#N)c1-c1c(-c2cccc(-c3ccc(C(=O)O)cc3Cl)c2)n(S(=O)(=O)c2ccc(C(F)F)cc2)c2ccc(F)cc12` [pre-6/3], for which, in series [3] (Weeks 6 to 12), the “fibrosis (picrosirus red staining)” value is reported as “significantly decreased”; the “hepatic expression of DNL genes (Srebp1c, Scd1, Fasn) and fibrogenesis genes (Timp1, Col1a1, Acta2)” value is recorded as “decreased”; the “liver TG content” value is recorded as “decreased”. For the same molecule, in series [3] (Weeks 6 to 12, p≤0.001), the “decrease of hepatic collagen content compared with vehicle” value is 50% and the “decrease of hepatic hydroxyproline content compared with vehicle” value was found to be 64%.
